Data from patent US20120214862A1, “MODULATION OF FACTOR 7 EXPRESSION” (ISIS Pharmaceuticals, Inc., priority 2009, published 2012).
In the oligonucleotide strings, read from the 5' end, every base follows the letter of its sugar. An asterisk marks phosphorothioate; unmarked linkages are phosphodiester. Other units and linkages are bracketed, terminal groups are in braces. A string of capitals states the bases alone. e = 2'-O-(2-methoxyethyl) (MOE); [5mC] = 5-methylcytosine; d = 2'-deoxy (DNA)

Test system: human Factor 7 mRNA
Experiment: Antisense inhibition of human Factor 7 mRNA in HepB3 cells, lipofectin, 50 nM, real-time RT-PCR
Type: cell-based
Details: HepB3 cells; for % Inhibition (human Factor 7 mRNA): Example 4, lipofectin, 50 nM, ~24 h, relative to untreated control
How it was run: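 After transfection of wells containing 4,000 cells, treatment ran for approximately 24 h. RIBOGREEN®-measured total RNA served for normalisation, and inhibition was calculated as a percentage of untreated control.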

[1] = gapmers targeted to nucleobases 11830 to 11869 of SEQ ID NO: 1 (Table 9)
[2] = gapmers targeted to nucleobases 13760 to 13789 of SEQ ID NO: 1 (Table 10)

| Substance | % Inhibition of human Factor 7 mRNA levels [1] | % Inhibition (human Factor 7 mRNA) | other results |
| --- | --- | --- | --- |
| 422153 (antisense e[5mC]*eA*eT*dG*d[5mC]*dA*dT*dG*dG*dT*dG*dA*dT*dG*d[5mC]*dT*dT*e[5mC]*eT*eG) [compound 422153] |  |  | % Inhibition of human Factor 7 mRNA levels (gapmers targeted to nucleobases 15188 to 15211 of SEQ ID NO: 1 (Table 13)): 67% |
| 422154 (antisense eT*e[5mC]*eA*dG*dG*dG*d[5mC]*dT*dG*dG*dT*dT*dT*dT*dG*dG*dA*eG*eG*eA) [compound 422154] | 31% |  |  |
| 422155 (antisense eG*eT*e[5mC]*dA*dG*dG*dG*d[5mC]*dT*dG*dG*dT*dT*dT*dT*dG*dG*eA*eG*eG) [compound 422155] | 34% |  |  |
| 422156 (antisense eG*eG*eT*d[5mC]*dA*dG*dG*dG*d[5mC]*dT*dG*dG*dT*dT*dT*dT*dG*eG*eA*eG) [compound 422156] | 38% |  |  |
| 422157 (antisense eT*eG*eG*dT*d[5mC]*dA*dG*dG*dG*d[5mC]*dT*dG*dG*dT*dT*dT*dT*eG*eG*eA) [compound 422157] | 49% |  |  |
| 422158 (antisense eA*eT*eG*dG*dT*d[5mC]*dA*dG*dG*dG*d[5mC]*dT*dG*dG*dT*dT*dT*eT*eG*eG) [compound 422158] | 49% |  |  |
| 422159 (antisense eA*eA*eT*dG*dG*dT*d[5mC]*dA*dG*dG*dG*d[5mC]*dT*dG*dG*dT*dT*eT*eT*eG) [compound 422159] | 45% |  |  |
| 422160 (antisense e[5mC]*eA*eA*dT*dG*dG*dT*d[5mC]*dA*dG*dG*dG*d[5mC]*dT*dG*dG*dT*eT*eT*eT) [compound 422160] | 42% |  |  |
| 422161 (antisense eA*e[5mC]*eA*dA*dT*dG*dG*dT*d[5mC]*dA*dG*dG*dG*d[5mC]*dT*dG*dG*eT*eT*eT) [compound 422161] | 53% |  |  |
| 422162 (antisense eG*eA*e[5mC]*dA*dA*dT*dG*dG*dT*d[5mC]*dA*dG*dG*dG*d[5mC]*dT*dG*eG*eT*eT) [compound 422162] | 59% |  |  |
| 422163 (antisense eA*eG*eA*d[5mC]*dA*dA*dT*dG*dG*dT*d[5mC]*dA*dG*dG*dG*d[5mC]*dT*eG*eG*eT) [compound 422163] | 56% |  |  |
| 422164 (antisense eG*eA*eG*dA*d[5mC]*dA*dA*dT*dG*dG*dT*d[5mC]*dA*dG*dG*dG*d[5mC]*eT*eG*eG) [compound 422164] | 64% |  |  |
| 422165 (antisense eG*eG*eA*dG*dA*d[5mC]*dA*dA*dT*dG*dG*dT*d[5mC]*dA*dG*dG*dG*e[5mC]*eT*eG) [compound 422165] | 57% |  |  |
| 422166 (antisense eA*eG*eG*dA*dG*dA*d[5mC]*dA*dA*dT*dG*dG*dT*d[5mC]*dA*dG*dG*eG*e[5mC]*eT) [compound 422166] | 63% |  |  |
| 422167 (antisense eG*eA*eG*dG*dA*dG*dA*d[5mC]*dA*dA*dT*dG*dG*dT*d[5mC]*dA*dG*eG*eG*e[5mC]) [compound 422167] | 53% |  |  |
| 422168 (antisense eT*eG*eA*dG*dG*dA*dG*dA*d[5mC]*dA*dA*dT*dG*dG*dT*d[5mC]*dA*eG*eG*eG) [compound 422168] | 30% |  |  |
| 422169 (antisense e[5mC]*eT*eG*dA*dG*dG*dA*dG*dA*d[5mC]*dA*dA*dT*dG*dG*dT*d[5mC]*eA*eG*eG) [compound 422169] | 56% |  |  |
| 422170 (antisense eG*e[5mC]*eT*dG*dA*dG*dG*dA*dG*dA*d[5mC]*dA*dA*dT*dG*dG*dT*e[5mC]*eA*eG) [compound 422170] | 28% |  |  |
| 422171 (antisense eG*eG*e[5mC]*dT*dG*dA*dG*dG*dA*dG*dA*d[5mC]*dA*dA*dT*dG*dG*eT*e[5mC]*eA) [compound 422171] | 61% |  |  |
| 422172 (antisense eT*eG*eG*d[5mC]*dT*dG*dA*dG*dG*dA*dG*dA*d[5mC]*dA*dA*dT*dG*eG*eT*e[5mC]) [compound 422172] | 39% |  |  |
| 422173 (antisense e[5mC]*eT*eG*dG*d[5mC]*dT*dG*dA*dG*dG*dA*dG*dA*d[5mC]*dA*dA*dT*eG*eG*eT) [compound 422173] | 51% |  |  |
| 422174 (antisense eG*e[5mC]*eT*dG*dG*d[5mC]*dT*dG*dA*dG*dG*dA*dG*dA*d[5mC]*dA*dA*eT*eG*eG) [compound 422174] | 55% |  |  |
| 422175 (antisense e[5mC]*eG*e[5mC]*d[5mC]*dG*dG*d[5mC]*dT*d[5mC]*dT*dG*d[5mC]*dT*d[5mC]*dA*dT*d[5mC]*e[5mC]*e[5mC]*e[5mC]) [compound 422175] |  |  | % Inhibition of human Factor 7 mRNA levels [2]: 69% |

| Substance | % Inhibition of human Factor 7 mRNA levels [1] | % Inhibition (human Factor 7 mRNA) | other results |
| --- | --- | --- | --- |
| 422176 (antisense e[5mC]*e[5mC]*eG*d[5mC]*d[5mC]*dG*dG*d[5mC]*dT*d[5mC]*dT*dG*d[5mC]*dT*d[5mC]*dA*dT*e[5mC]*e[5mC]*e[5mC]) [compound 422176] |  |  | % Inhibition of human Factor 7 mRNA levels [2]: 52% |
| 422178 (antisense eA*e[5mC]*e[5mC]*d[5mC]*dG*d[5mC]*d[5mC]*dG*dG*d[5mC]*dT*d[5mC]*dT*dG*d[5mC]*dT*d[5mC]*eA*eT*e[5mC]) [compound 422178] |  |  | % Inhibition of human Factor 7 mRNA levels [2]: 37% |
| 422179 (antisense e[5mC]*eA*e[5mC]*d[5mC]*d[5mC]*dG*d[5mC]*d[5mC]*dG*dG*d[5mC]*dT*d[5mC]*dT*dG*d[5mC]*dT*e[5mC]*eA*eT) [compound 422179] |  |  | % Inhibition of human Factor 7 mRNA levels [2]: 43% |
| 422180 (antisense e[5mC]*e[5mC]*eA*d[5mC]*d[5mC]*d[5mC]*dG*d[5mC]*d[5mC]*dG*dG*d[5mC]*dT*d[5mC]*dT*dG*d[5mC]*eT*e[5mC]*eA) [compound 422180] |  |  | % Inhibition of human Factor 7 mRNA levels [2]: 54% |
| 422181 (antisense eG*e[5mC]*e[5mC]*dA*d[5mC]*d[5mC]*d[5mC]*dG*d[5mC]*d[5mC]*dG*dG*d[5mC]*dT*d[5mC]*dT*dG*e[5mC]*eT*e[5mC]) [compound 422181] |  |  | % Inhibition of human Factor 7 mRNA levels [2]: 66% |
| 422182 (antisense e[5mC]*eG*e[5mC]*d[5mC]*dA*d[5mC]*d[5mC]*d[5mC]*dG*d[5mC]*d[5mC]*dG*dG*d[5mC]*dT*d[5mC]*dT*eG*e[5mC]*eT) [compound 422182] |  |  | % Inhibition of human Factor 7 mRNA levels [2]: 11% |
| 422184 (antisense eT*eG*e[5mC]*dG*d[5mC]*d[5mC]*dA*d[5mC]*d[5mC]*d[5mC]*dG*d[5mC]*d[5mC]*dG*dG*d[5mC]*dT*e[5mC]*eT*eG) [compound 422184] |  |  | % Inhibition of human Factor 7 mRNA levels [2]: 55% |
| 422185 (antisense e[5mC]*eT*eG*d[5mC]*dG*d[5mC]*d[5mC]*dA*d[5mC]*d[5mC]*d[5mC]*dG*d[5mC]*d[5mC]*dG*dG*d[5mC]*eT*e[5mC]*eT) [compound 422185] |  |  | % Inhibition of human Factor 7 mRNA levels [2]: 48% |
| 422186 (antisense eG*eG*eA*dA*dG*dA*dA*dG*dG*dG*dA*d[5mC]*dG*dG*dA*dA*dG*eG*eT*eG) [compound 422186] |  | 14% |  |
| 422187 (antisense e[5mC]*eG*eG*dA*dA*dG*dA*dA*dG*dG*dG*dA*d[5mC]*dG*dG*dA*dA*eG*eG*eT) [compound 422187] |  | 28% |  |
| 422188 (antisense eG*e[5mC]*eG*dG*dA*dA*dG*dA*dA*dG*dG*dG*dA*d[5mC]*dG*dG*dA*eA*eG*eG) [compound 422188] |  | 37% |  |
| 422189 (antisense e[5mC]*eG*e[5mC]*dG*dG*dA*dA*dG*dA*dA*dG*dG*dG*dA*d[5mC]*dG*dG*eA*eA*eG) [compound 422189] |  | 0% |  |
| 422190 (antisense eG*e[5mC]*eG*d[5mC]*dG*dG*dA*dA*dG*dA*dA*dG*dG*dG*dA*d[5mC]*dG*eG*eA*eA) [compound 422190] |  | 12% |  |
| 422191 (antisense eA*eG*e[5mC]*dG*d[5mC]*dG*dG*dA*dA*dG*dA*dA*dG*dG*dG*dA*d[5mC]*eG*eG*eA) [compound 422191] |  | 27% |  |
| 422192 (antisense eG*eA*eG*d[5mC]*dG*d[5mC]*dG*dG*dA*dA*dG*dA*dA*dG*dG*dG*dA*e[5mC]*eG*eG) [compound 422192] |  | 27% |  |
| 422193 (antisense eT*eG*eA*dG*d[5mC]*dG*d[5mC]*dG*dG*dA*dA*dG*dA*dA*dG*dG*dG*eA*e[5mC]*eG) [compound 422193] |  | 6% |  |
| 422194 (antisense e[5mC]*eT*eG*dA*dG*d[5mC]*dG*d[5mC]*dG*dG*dA*dA*dG*dA*dA*dG*dG*eG*eA*e[5mC]) [compound 422194] |  | 11% |  |
| 422195 (antisense eA*e[5mC]*eT*dG*dA*dG*d[5mC]*dG*d[5mC]*dG*dG*dA*dA*dG*dA*dA*dG*eG*eG*eA) [compound 422195] |  | 37% |  |
| 422196 (antisense eT*eA*e[5mC]*dT*dG*dA*dG*d[5mC]*dG*d[5mC]*dG*dG*dA*dA*dG*dA*dA*eG*eG*eG) [compound 422196] |  | 2% |  |
| 422197 (antisense eT*eT*eA*d[5mC]*dT*dG*dA*dG*d[5mC]*dG*d[5mC]*dG*dG*dA*dA*dG*dA*eA*eG*eG) [compound 422197] |  | 26% |  |
| 422198 (antisense eG*eT*eT*dA*d[5mC]*dT*dG*dA*dG*d[5mC]*dG*d[5mC]*dG*dG*dA*dA*dG*eA*eA*eG) [compound 422198] |  | 50% |  |
| 422199 (antisense eG*eG*eT*dT*dA*d[5mC]*dT*dG*dA*dG*d[5mC]*dG*d[5mC]*dG*dG*dA*dA*eG*eA*eA) [compound 422199] |  | 65% |  |
